Test results: patent EP4603105A1, “PHARMACEUTICAL COMPOSITION CONTAINING CYCLIC COMPOUND HAVING SELECTIVE KRAS INHIBITORY EFFECT AGAINST HRAS AND NRAS” (CHUGAI SEIYAKU KABUSHIKI KAISHA, priority 2022, dated 2024)
pIC50, pKd: −log10 of the molar value.

Columns and labels:
[1] = target: GDP-bound KRAS wild-type protein (Homo sapiens, UniProt P01116); test: Binding to KRAS by surface plasmon resonance (SPR), dissociation constant KD
How it was run: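 Compound binding is evaluated by SPR single-cycle kinetics, with concentrations added intermittently from low to high for 75 s each. Target surfaces carry GDP-loaded biotinylated Avi-RAS at about 100–300 RU, regenerated after each cycle; temperature 30°C. A 1:1 binding model gives KD.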

[2] = target: GDP-bound NRAS wild-type protein (Homo sapiens, UniProt P01111); test: Binding to NRAS by surface plasmon resonance (SPR), KD and KD ratio to KRAS; details: ratio of KD for GDP-bound NRAS wild-type protein to KD for KRAS
How it was run: (§1)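 Biotinylated GDP-bound RAS was captured at about 100–300 RU. Running buffer: HBS pH 7.4, 10 mM MgCl2, 10 µM GDP, 1 mM DTT, 0.01% Tween 20, 4% DMSO.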

HRAS wild-type protein = HRAS wild-type protein (Homo sapiens, UniProt P01112); test: Binding to HRAS by surface plasmon resonance (SPR), KD and KD ratio to KRAS; details: ratio of KD for HRAS wild-type protein to KD for KRAS
How it was run: as §1

[3] = tested on: human lung cancer strain NCI-H441; test: NCI-H441 cell proliferation inhibitory activity (CellTiter-Glo, 4 days); type: cell-based; details: NCI-H441 cells, 4 days, read-out: NCl-H441 IC50
How it was run: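 Step one: dispense the test compound in serial DMSO dilutions. Step three: add the reagent and measure […].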

Chain of HRAS wild-type protein (P01112 whole entry): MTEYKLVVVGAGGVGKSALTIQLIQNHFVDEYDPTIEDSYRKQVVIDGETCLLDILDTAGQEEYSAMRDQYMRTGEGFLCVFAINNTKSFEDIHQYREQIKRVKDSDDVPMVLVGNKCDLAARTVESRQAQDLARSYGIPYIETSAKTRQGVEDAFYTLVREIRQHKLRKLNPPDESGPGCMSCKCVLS
Chain of GDP-bound NRAS wild-type protein (P01111 whole entry): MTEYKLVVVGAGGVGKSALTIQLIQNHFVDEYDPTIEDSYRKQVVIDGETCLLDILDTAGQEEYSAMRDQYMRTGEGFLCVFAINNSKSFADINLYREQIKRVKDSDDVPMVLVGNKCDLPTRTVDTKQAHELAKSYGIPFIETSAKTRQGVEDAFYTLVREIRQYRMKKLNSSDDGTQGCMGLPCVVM
Chain of GDP-bound KRAS wild-type protein (P01116 1-188 isoform P01116-2): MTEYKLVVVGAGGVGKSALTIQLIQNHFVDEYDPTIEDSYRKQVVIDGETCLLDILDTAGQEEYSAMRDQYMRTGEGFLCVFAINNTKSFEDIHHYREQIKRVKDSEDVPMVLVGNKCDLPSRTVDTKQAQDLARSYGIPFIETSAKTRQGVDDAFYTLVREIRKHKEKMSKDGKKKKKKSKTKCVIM

pKd ([1]; Single Cycle Kinetics) | pIC50 [3] | pKd ([1]; 1:1 binding model) | Structure (SMILES) | NRAS /KRAS [2] | HRAS /KRAS (HRAS wild-type protein)
9.57 | 7.91 | – | CCO[C@@H]1C[C@H]2C(=O)NC3(CCCC3)C(=O)N(C)[C@@H](C3CCCC3)C(=O)N(C)[C@H](C(=O)N(C)C)CC(=O)N(C)[C@@H](CC(C)C)C(=O)N[C@@H]([C@@H](C)CC)C(=O)N(C)CC(=O)N(C)[C@H]3C/C(F)=C\CCN(C3=O)[C@@H](Cc3ccc(C)cc3)C(=O)N(C)CC(=O)N[C@@H](CCc3cc(F)c(C(F)(F)F)c(F)c3)C(=O)N2C1 [PP3511] | B (a compound having 3 or more and less than 10 is denoted as B) | B (a compound having 3 or more and less than 10 is denoted as B)
9.68 | 7.63 | – | CCO[C@@H]1C[C@H]2C(=O)NC3(CC(C)(C)C3)C(=O)N(C)[C@@H](C3CCCC3)C(=O)N(C)[C@H](C(=O)N(C)CC)CC(=O)N(C)[C@@H]([C@H](C)OC)C(=O)N[C@@H]([C@@H](C)CC)C(=O)N(C)CC(=O)N(C)[C@H]3C/C=C\CCN(C3=O)[C@@H](Cc3ccc(C)cc3)C(=O)N(C)CC(=O)N[C@@H](CCc3ccc(C(F)(F)F)c(Cl)c3)C(=O)N2C1 [PP3227] | A (a compound having 10 or more and less than 20 is denoted as A) | A (a compound having 10 or more and less than 20 is denoted as A)
9.21 | 7.90 | – | C=CCN1CC(=O)N(C)[C@H]2C/C=C\CCN(C2=O)[C@@H](Cc2ccc(C(F)F)cc2)C(=O)N(C)CC(=O)N[C@@H](CCc2cc(F)c(C(F)(F)F)c(F)c2)C(=O)N2C[C@H](OC(C)C)C[C@H]2C(=O)N(C)C2(CCC2)C(=O)N(C)[C@@H](C(CC)CC)C(=O)N(C)[C@H](C(=O)N(C)C)CC(=O)N(C)[C@@H](COCCC)C(=O)N[C@@H]([C@@H](C)OCCC)C1=O [PP3486] | A (a compound having 10 or more and less than 20 is denoted as A) | A (a compound having 10 or more and less than 20 is denoted as A)
– | 7.92 | 9.57 | CCC[C@H]1C(=O)N[C@@H]([C@@H](C)CC)C(=O)N(C2CC2)CC(=O)N(C)[C@H]2C/C=C\CCN(C2=O)[C@@H](Cc2ccc(C)cc2)C(=O)N(C)CC(=O)N[C@@H](CCc2cc(F)c(C(F)(F)F)c(F)c2)C(=O)N2C[C@H](OC3CCC3)C[C@H]2C(=O)NC2(CC(C)(C)C2)C(=O)N(C)[C@@H](C2CCCC2)C(=O)N(C)[C@H](C(=O)N(C)C)CC(=O)N1C [PP2614] | A (a compound having 10 or more and less than 20 is denoted as A) | A (a compound having 10 or more and less than 20 is denoted as A)
9.06 | 7.25 | – | CCO[C@@H]1C[C@H]2C(=O)NC3(CCCC3)C(=O)N(C)[C@@H](C3CCCC3)C(=O)N(C)[C@H](C(=O)N(C)C)CC(=O)N(C)[C@@H]([C@@H](C)OC)C(=O)N[C@@H]([C@@H](C)CC)C(=O)N3CCC[C@H]3C(=O)N(C)[C@H]3C/C=C\CCN(C3=O)[C@@H](Cc3ccc(C)cc3)C(=O)N(C)CC(=O)N[C@@H](CCc3cc(F)c(C(F)(F)F)c(F)c3)C(=O)N2C1 [PP3483] | A (a compound having 10 or more and less than 20 is denoted as A) | A (a compound having 10 or more and less than 20 is denoted as A)
9.30 | 7.65 | – | CCCOC[C@H]1C(=O)N[C@@H]([C@@H](C)CC)C(=O)N(CCC)CC(=O)N(C)[C@H]2C/C=C\CCN(C2=O)[C@@H](Cc2ccc(C(F)F)cc2)C(=O)N(C)CC(=O)N[C@@H](CCc2cc(F)c(C(F)(F)F)c(F)c2)C(=O)N2C[C@H](OC3CCC3)C[C@H]2C(=O)N(C)C2(CCC2)C(=O)N(C)[C@@H](C(CC)CC)C(=O)N(C)[C@H](C(=O)N(C)C)CC(=O)N1C [PP3502] | AA (a compound having 20 or more is denoted as AA) | A (a compound having 10 or more and less than 20 is denoted as A)
